Among the data in PMC6240092, “NUAK2 is a critical YAP target in liver cancer” (Nature Communications, 2018) are IC50 values, retold here.

Molecules are shown by their SMILES. pIC50: −log10 of the molar value.

For this assay, the target named is T1, NUAK2 (Homo sapiens, UniProt Q9H093).
T1 construct: N-terminal GST-tagged NUAK2, expressed in HEK-293 cells and purified by glutathione-sepharose
T1 sequence (Q9H093 1-628): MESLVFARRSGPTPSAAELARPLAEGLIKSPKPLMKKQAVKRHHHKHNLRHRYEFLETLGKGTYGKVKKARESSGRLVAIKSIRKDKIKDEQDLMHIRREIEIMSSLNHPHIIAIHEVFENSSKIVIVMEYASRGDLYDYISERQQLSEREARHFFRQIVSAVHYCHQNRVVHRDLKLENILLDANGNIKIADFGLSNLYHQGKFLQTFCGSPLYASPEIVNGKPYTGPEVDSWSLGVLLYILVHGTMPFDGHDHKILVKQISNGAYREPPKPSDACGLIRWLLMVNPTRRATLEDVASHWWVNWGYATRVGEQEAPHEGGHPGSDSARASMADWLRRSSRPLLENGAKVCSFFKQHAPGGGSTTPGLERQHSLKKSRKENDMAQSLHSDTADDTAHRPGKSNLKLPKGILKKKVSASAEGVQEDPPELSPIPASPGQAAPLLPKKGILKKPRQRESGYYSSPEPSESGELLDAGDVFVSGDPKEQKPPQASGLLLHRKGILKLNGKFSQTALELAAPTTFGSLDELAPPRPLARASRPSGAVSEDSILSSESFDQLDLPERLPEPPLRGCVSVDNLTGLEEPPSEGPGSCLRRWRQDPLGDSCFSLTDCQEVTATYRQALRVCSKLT
Description: radiometric peptide kinase assay with [γ-32P]ATP ([…]) and Sakamototide ([…]). The class given is biochemical.

The compound `CCC(=O)Nc1cccc(Oc2nc(Nc3ccc(N4CCN(C)CC4)cc3OC)ncc2I)c1` [HTH-02-006] gave a pIC50 of 6.90.

A word on the pIC50: it is the negative decadic logarithm of the IC50, by convention in mol/L. The low end stands for a high IC50, the high end for a low IC50.
